This series concerns GK rats. Put plainly: GK rat chronic efficacy, compound in feed for 20 days. It counts as in vivo. The note with it: for effect on body weight / effect on food intake: GK rats; for % HBA1c / Liver Triglycerides: following 20 days of treatment in the GK rat. The protocol:
At the start of the study, fed glucose was measured at 8 A.M., and animals were selected and sorted into treatment groups based on ambient glucose (n = 10/male GK group, n = 6/male WKY control group). […] Fed blood glucose, food intake, and body weights were determined on days 0, 1, 3, 7, and 14 of study at 8 A.M. On days 7 and 14, food was removed for 5 h and plasma glucose was measured. Percent inhibitions were calculated as the percent reduction of blood glucose from the average value for vehicle controls. On day 14, blood was collected from the tail vein (20 μl) after the morning glucose measurement and after 5 h fast from a subset of n = 3 rats per treatment group to determine the ambient and fasted exposure of the compounds in circulation. The blood was stored at 4°C in 0.1 M sodium monocitrate for subsequent analysis. Animals were then re-fed their respective diet treatments. On day 20 of treatment at 8 A.M., blood glucose was measured and then animals were euthanized via CO2 asphyxiation. Blood and liver tissue were sampled, processed, and stored at -80°C until analysis.
Plasma was analyzed for triglycerides, NEFA, and HbA1C using a P Modular Roche Clinical Chemistry analyzer. Liver triglycerides were extracted as described by Bligh and Dyer, and were measured using the Infinity triglyceride assay kit (Thermo Scientific, Rockford, IL). Plasma insulin levels were measured via EIA (Mesoscale Discovery ELISA Kit, Gaithersburg MD).

Several values for one entry are separate records, joined by “and”; a condition that tells them apart may be missing. Equal values may be shown once.

With `O=C1NC(=O)C(C2CCOc3cc(Oc4ccc(C(F)(F)F)cc4Cl)ccc32)S1` (stereo not drawn) [MK-2305], the “effect on body weight” value runs as follows: (10 mg/kg in feed) “no significant effect”; (30 mg/kg in feed, relative to vehicle controls) “did not correspond to changes in body weight”. Moreover, the “effect on food intake” value is, setting by setting: (10 mg/kg in feed) “no significant effect”; (30 mg/kg in feed, p < 0.05) “reduction in food intake that persisted through day 14”. In addition, the “% HBA1c” value is, setting by setting: (10 mpk, individual animals) 4.3% and 4.6% and 4.2% and 4.4% and 4.5%; (30 mpk, individual animals) 4.4% and 4.5% and 4.3%. In addition, the “Liver Triglycerides” value is 19.1 mg/g tissue and 21.7 mg/g tissue and 24.5 mg/g tissue and 22.1 mg/g tissue and 24.7 mg/g tissue and 26.9 mg/g tissue and 25.8 mg/g tissue and 22.8 mg/g tissue (10 mpk, individual animals); 16.7 mg/g tissue and 23.9 mg/g tissue and 28.2 mg/g tissue and 27.1 mg/g tissue and 24.5 mg/g tissue and 23 mg/g tissue and 24.3 mg/g tissue (30 mpk, individual animals). In addition, the “Morning (fed) Blood Glucose” value was 189 mg/dL and 176 mg/dL and 238 mg/dL and 199 mg/dL and 183 mg/dL and 212 mg/dL and 192 mg/dL and 274 mg/dL and 228 mg/dL (30 mpk in feed, Day 0 (start of study), individual GK rats); 147 mg/dL and 165 mg/dL and 223 mg/dL and 161 mg/dL and 155 mg/dL and 192 mg/dL and 153 mg/dL and 302 mg/dL and 159 mg/dL (30 mpk in feed, Day 1, individual GK rats); 139 mg/dL and 153 mg/dL and 156 mg/dL and 150 mg/dL and 169 mg/dL and 149 mg/dL and 154 mg/dL and 218 mg/dL and 134 mg/dL (30 mpk in feed, Day 3, individual GK rats); 139 mg/dL and 153 mg/dL and 126 mg/dL and 142 mg/dL and 151 mg/dL and 181 mg/dL and 197 mg/dL and 140 mg/dL (30 mpk in feed, Day 7, individual GK rats); 141 mg/dL and 143 mg/dL and 156 mg/dL and 133 mg/dL and 132 mg/dL and 146 mg/dL and 147 mg/dL (30 mpk in feed, Day 14, individual GK rats); 128 mg/dL and 137 mg/dL and 159 mg/dL and 133 mg/dL and 139 mg/dL and 122 mg/dL and 126 mg/dL and 115 mg/dL and 142 mg/dL (30 mpk in feed, Day 20, individual GK rats). For the same compound, the “Morning (fed) Blood Glucose” value was 184 mg/dL and 260 mg/dL and 210 mg/dL and 227 mg/dL and 237 mg/dL and 193 mg/dL and 200 mg/dL and 191 mg/dL and 179 mg/dL (MK-2305 10 mpk in feed, Day 0 (start of study), individual GK rats, 10 mg/kg); 170 mg/dL and 247 mg/dL and 203 mg/dL and 186 mg/dL and 231 mg/dL and 179 mg/dL and 277 mg/dL and 199 mg/dL and 162 mg/dL (MK-2305 10 mpk in feed, Day 1, individual GK rats, 10 mg/kg); 158 mg/dL and 166 mg/dL and 183 mg/dL and 172 mg/dL and 163 mg/dL and 169 mg/dL and 170 mg/dL and 167 mg/dL (MK-2305 10 mpk in feed, Day 3, individual GK rats, 10 mg/kg). The Fasted blood glucose (Day 7, ~6 hrs after food removal, 30mpk, chronic study, individual animals, 30 mg/kg) is 110 mg/dl (2×) and 125 mg/dl and 135 mg/dl and 103 mg/dl and 141 mg/dl and 118 mg/dl (2×) and 114 mg/dl. Besides, the Fasted plasma insulin is 405.2 pg/mL and 91.1 pg/mL and 88.1 pg/mL and 159.3 pg/mL and 284.1 pg/mL and 97.1 pg/mL and 80.9 pg/mL and 605.6 pg/mL and 106.3 pg/mL (Day 7, 10mpk, individual animals, 10 mg/kg); 199.5 pg/mL and 58.7 pg/mL and 102.1 pg/mL and 88.8 pg/mL and 104.2 pg/mL and 182.8 pg/mL and 66.3 pg/mL and 259.0 pg/mL and 51.6 pg/mL (Day 7, 30mpk, individual animals, 30 mg/kg); 66.8 pg/mL and 405.9 pg/mL and 135.1 pg/mL and 49.4 pg/mL and 1589.0 pg/mL and 353.3 pg/mL and 247.1 pg/mL and 127.3 pg/mL and 158.9 pg/mL (Day 14, 10mpk, individual animals, 10 mg/kg); 80.8 pg/mL and 3482.1 pg/mL and 77.9 pg/mL and 794.5 pg/mL and 102.8 pg/mL and 430.5 pg/mL and 972.9 pg/mL and 1169.4 pg/mL and 1639.6 pg/mL (Day 14, 30mpk, individual animals, 30 mg/kg). Also, the “NEFA (mEq/L)” value was 0.23 mEq/L and 0.33 mEq/L and 0.26 mEq/L and 0.5 mEq/L and 0.19 mEq/L and 0.37 mEq/L and 0.32 mEq/L (MK2305 @ 10, 20 days of treatment, individual GK rats); 0.21 mEq/L and 0.43 mEq/L and 0.24 mEq/L and 0.45 mEq/L and 0.39 mEq/L and 0.38 mEq/L and 0.22 mEq/L and 0.34 mEq/L (MK2305 @ 30, 20 days of treatment, individual GK rats).

These data come from paper PMC5441580, “GPR40 partial agonist MK-2305 lower fasting glucose in the Goto Kakizaki rat via suppression of endogenous glucose production” (PLoS ONE, 2017).
